Consider 17 compounds from patent US20160257697A1, “THIOPHENE-SUBSTITUTED TETRACYCLIC COMPOUNDS AND METHODS OFUSE THEREOF FOR THE TREATMENT OF VIRAL DISEASES” (priority 2013, published 2016).

Assay in all cases: microbe, parasite or virus in culture
Holding throughout (type): cell-based, Hepatitis C virus (HCV)

Assay [1] relates to HCV replicon 1AY93H. The note with it: Replicon Assay A. The method, boiled down: (§1)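 Compound is added to replicon cells plated at 2000 cells/well (0.5% DMSO, 5% FBS). After 3 days the cells are washed and lysed, and HCV RNA and cyclophilin mRNA are quantified by multiplex RT-PCR against a standard curve of known replicon total RNA.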
The test system of assay [2] is HCV replicon 1A. The settings on record: Replicon Assay A. The method, boiled down: as §1
In general terms: In antiviral work, replicon cells carry a viral genome segment that copies itself.

The subject of assay [3] is HCV replicon 2B. The settings on record: Replicon Assay A. The method, boiled down:
as §1

In assay [4] the test system is HCV replicon 1AQ30D. The note with it: Replicon Assay B.
The subject of assay [5] is HCV replicon 1B. The settings on record: Replicon Assay B.
Setting [6] is: read-out: 1A Y93H IC50, replicon 1AY93H.
The mark [7] stands for this setting: Hepatitis C virus, read-out: 1A Q30D IC50 (nM), replicon 1AQ30D.
The mark [8] stands for this setting: Hepatitis C virus, read-out: 1A Y93H IC50, HCV replicon 1A Y93H.
Where [9] appears, read: Hepatitis C virus, HCV replicon 1A.
[10] abbreviates: Hepatitis C virus, read-out: 2B IC50, HCV replicon 2B.
The mark [11] stands for this setting: Hepatitis C virus, read-out: 1A Q30D IC50, HCV replicon 1A Q30D.
[12] abbreviates: Hepatitis C virus, HCV replicon 1B.
Where [13] appears, read: read-out: 1A Y93H IC50, HCV replicon 1A Y93H.
[14] abbreviates: read-out: 2B IC50, HCV replicon 2B.
Setting [15] is: read-out: 1A Q30D IC50, HCV replicon 1A Q30D.

The structures appear in SMILES notation. Read-outs that look alike come from different tables or passages of the source.

Turning to `COC(=O)NC(C(=O)N1CCC[C@H]1c1ncc(-c2ccc3c(c2)cc2n3C(c3ccc(CC(F)(F)F)s3)Oc3cc(-c4cnc([C@@H]5CCCN5C(=O)[C@@H](NC(=O)OC)C(C)C)[nH]4)cc(F)c3-2)[nH]1)C1C[C@@H](C)O[C@@H](C)C1` (single isomer, unassigned) [Compound 382], the concentration for half-maximal inhibition (IC50) (as a rule, the concentration at which inhibition is half-maximal) in assay [1] (replicon 1AY93H, read-out: 1A Y93H IC50) was determined as 3.4 pM; in assay [2] (replicon 1A) it was 1.7 pM; in assay [3] (replicon 2B, read-out: 2B IC50), 8 pM; in assay [4] (replicon 1AQ30D, read-out: 1A Q30D IC50) it was 0.0229 nM; in assay [5] (replicon 1B), 2.5 pM.

As to `COC(=O)N[C@@H](Cc1ccccc1)C(=O)N1CCC[C@H]1c1ncc(-c2ccc3c(c2)OC(c2ccc(-c4ccc(NC(=O)CCCC[C@@H]5SC[C@@H]6NC(=O)N[C@@H]65)cc4)s2)n2c-3cc3cc(-c4cnc([C@@H]5CCCN5C(=O)[C@H](Cc5ccccc5)NC(=O)OC)[nH]4)ccc32)[nH]1` (single isomer, unassigned) [Compound 384], the IC50 in assay [1] (setting [6]) came to 923 pM; in assay [2] (replicon 1A) it was 15.6 pM; in assay [3] (read-out: 2B IC50, replicon 2B) it was 3750 pM; in assay [4] (setting [7]), 16.7 nM; in assay [5] (Hepatitis C virus, replicon 1B), 9.5 pM.

For `COC(=O)N[C@H](C(=O)N1CCC[C@H]1c1ncc(-c2cc(F)c3c(c2)OC(c2ccc(CC4CC4)s2)n2c-3cc3cc(-c4cnc([C@@H]5C[C@H]6C[C@H]6N5C(=O)[C@@H](NC(=O)OC)C(C)C)[nH]4)ccc32)[nH]1)C(C)C` (single isomer, unassigned) [Compound 389], the IC50 worked out at 13.7 pM in assay [1] (setting [6]); 2.7 pM in assay [2] (Hepatitis C virus, replicon 1A); 69.1 pM in assay [3] (read-out: 2B IC50, replicon 2B); 0.23 nM in assay [4] (setting [7]); 3.9 pM in assay [5] (Hepatitis C virus, replicon 1B).

Turning to `COC(=O)N[C@H](C(=O)N1CCC[C@H]1c1ncc(-c2cc(F)c3c(c2)OC(c2cc4c(s2)CCC(C)(C)O4)n2c-3cc3cc(-c4cnc([C@@H]5CCCN5C(=O)[C@@H](NC(=O)OC)C(C)C)[nH]4)ccc32)[nH]1)C(C)C` (single isomer, unassigned) [Compound 397], the IC50 in assay [1] (setting [6]) was 4 pM; in assay [2] (Hepatitis C virus, replicon 1A), 3 pM; in assay [3] (read-out: 2B IC50, replicon 2B) it was 16.4 pM; in assay [4] (setting [7]), 0.0765 nM; in assay [5] (Hepatitis C virus, replicon 1B) it was 3 pM.

As to `COC(=O)NC(C(=O)N1CCC[C@H]1c1ncc(-c2ccc3c(c2)cc2n3C(c3ccc(C4CC4)s3)Oc3cc(-c4cnc([C@@H]5CCCN5C(=O)[C@@H](NC(=O)OC)C(C)C)[nH]4)cc(F)c3-2)[nH]1)C1C[C@H](C)O[C@@H](C)C1` (single isomer, unassigned) [Compound 403], the IC50 was found to be 6.7 pM in assay [1] (setting [6]); 2.5 pM in assay [2] (Hepatitis C virus, replicon 1A); 7 pM in assay [3] (read-out: 2B IC50, replicon 2B); 0.0703 nM in assay [4] (setting [7]); 3.3 pM in assay [5] (Hepatitis C virus, replicon 1B).

On to `COC(=O)N[C@H](C(=O)N1CCC[C@H]1c1ncc(-c2ccc3c(c2)OC(c2ccc(C4CC4)s2)n2c-3c(F)c3cc(-c4cnc([C@@H]5C[C@H]6C[C@H]6N5C(=O)[C@@H](NC(=O)OC)C5C[C@@H](C)O[C@@H](C)C5)[nH]4)ccc32)[nH]1)C(C)C` (single isomer, unassigned) [Compound 406], for which the IC50 in assay [1] (setting [8]) was 4.1 pM; in assay [2] (setting [9]), 2.3 pM; in assay [3] (setting [10]) it was 16.1 pM; in assay [4] (setting [11]), 0.0824 nM; in assay [5] (setting [12]), 2.8 pM.

Take `COC(=O)NC(C(=O)N1CCC[C@H]1c1ncc(-c2ccc3c(c2)cc2n3C(c3ccc(CC4CC4)s3)Oc3cc(-c4cnc([C@@H]5CCCN5C(=O)[C@@H](NC(=O)OC)C(C)C)[nH]4)cc(F)c3-2)[nH]1)C1CCOC(C)(C)C1` (single isomer, unassigned) [Compound 408]: the concentration for half-maximal inhibition (IC50) in assay [1] (setting [13]) was 4 pM; in assay [2] (HCV replicon 1A) it was 3.5 pM; in assay [3] (setting [14]) it was 5 pM; in assay [4] (setting [15]), 0.0261 nM; in assay [5] (HCV replicon 1B), 1.9 pM.

For `COC(=O)NC(C(=O)N1CCC[C@H]1c1ncc(-c2ccc3c(c2)c(F)c2n3C(c3ccc(C4CC4)s3)Oc3cc(-c4cnc([C@@H]5CCCN5C(=O)[C@@H](NC(=O)OC)C(C)C)[nH]4)cc(F)c3-2)[nH]1)C1CCOC(C)(C)C1` (single isomer, unassigned) [Compound 413], the IC50 in assay [1] (setting [8]) came to 14.1 pM; in assay [2] (setting [9]), 3 pM; in assay [3] (setting [10]), 7.1 pM; in assay [4] (setting [11]), 0.278 nM; in assay [5] (setting [12]), 3 pM.

With `COC(=O)NC(C(=O)N1[C@@H]2C[C@@H]2C[C@H]1c1ncc(-c2ccc3c(c2)cc2n3C(c3ccc(C(F)F)s3)Oc3cc(-c4cnc([C@@H]5CCCN5C(=O)[C@@H](NC(=O)OC)C(C)C)[nH]4)cc(F)c3-2)[nH]1)C1CCOC(C)(C)C1` (single isomer, unassigned) [Compound 415], the IC50 amounted to 4.2 pM in assay [1] (setting [13]); 2.3 pM in assay [2] (HCV replicon 1A); 12.6 pM in assay [3] (setting [14]); 0.0424 nM in assay [4] (setting [11]); 2.4 pM in assay [5] (setting [12]).

As to `COC(=O)NC(C(=O)N1[C@@H]2C[C@@H]2C[C@H]1c1ncc(-c2ccc3c(c2)cc2n3C(c3ccc(CC4CC4)s3)Oc3cc(-c4cnc([C@@H]5CCCN5C(=O)[C@@H](NC(=O)OC)C(C)C)[nH]4)cc(F)c3-2)[nH]1)C1CCOC(C)(C)C1` (single isomer, unassigned) [Compound 416], the IC50 in assay [1] (setting [13]) was 86.2 pM; in assay [2] (HCV replicon 1A), 2.3 pM; in assay [3] (setting [14]), 104 pM; in assay [4] (setting [15]) it was 1.24 nM; in assay [5] (HCV replicon 1B), 3.1 pM.

Take `COC(=O)NC(C(=O)N1[C@@H]2C[C@@H]2C[C@H]1c1ncc(-c2ccc3c(c2)cc2n3C(c3ccc(CC4CC4)s3)Oc3cc(-c4cnc([C@@H]5CCCN5C(=O)[C@@H](NC(=O)OC)C(C)C)[nH]4)cc(F)c3-2)[nH]1)C1CCOC(C)(C)C1` (single isomer, unassigned) [Compound 417]: the concentration for half-maximal inhibition (IC50) in assay [1] (setting [13]) was determined as 119 pM; in assay [2] (HCV replicon 1A), 3.4 pM; in assay [3] (setting [14]) it was 9.8 pM; in assay [4] (setting [15]), 0.0738 nM; in assay [5] (HCV replicon 1B), 6 pM.

For the compound `COC(=O)NC(C(=O)N1[C@@H]2C[C@@H]2C[C@H]1c1ncc(-c2ccc3c(c2)cc2n3C(c3ccc(CC4CC4)s3)Oc3cc(-c4cnc([C@@H]5CCCN5C(=O)[C@@H](NC(=O)OC)C(C)C)[nH]4)cc(F)c3-2)[nH]1)C1CCOC(C)(C)C1` (single isomer, unassigned) [Compound 418], the IC50 in assay [1] (setting [13]) worked out at 93 pM; in assay [2] (HCV replicon 1A) it was 2.7 pM; in assay [3] (setting [14]) it was 160 pM; in assay [4] (setting [15]) it was 0.862 nM; in assay [5] (HCV replicon 1B), 2.7 pM.

Consider `COC(=O)NC(C(=O)N1[C@@H]2C[C@@H]2C[C@H]1c1ncc(-c2ccc3c(c2)cc2n3C(c3ccc(CC4CC4)s3)Oc3cc(-c4cnc([C@@H]5CCCN5C(=O)[C@@H](NC(=O)OC)C(C)C)[nH]4)cc(F)c3-2)[nH]1)C1CCOC(C)(C)C1` (single isomer, unassigned) [Compound 419], for which the half-inhibitory concentration (IC50) in assay [1] (setting [13]) was 7.2 pM; in assay [2] (HCV replicon 1A) it was 7.2 pM; in assay [3] (setting [14]) it was 13.2 pM; in assay [4] (setting [15]) it was 0.0916 nM; in assay [5] (HCV replicon 1B), 8.3 pM.

On to `COCc1ccc(C2Oc3cc(-c4cnc([C@@H]5CCCN5C(=O)[C@@H](NC(=O)OC)C(C)C)[nH]4)cc(F)c3-c3cc4cc(-c5c[nH]c([C@@H]6CCCN6C(=O)[C@@H](NC(=O)OC)C(C)C)n5)ccc4n32)s1` (single isomer, unassigned) [Compound 513], for which the IC50 was 38.5 pM in assay [1] (setting [13]); 3.93 pM in assay [2] (HCV replicon 1A); 409 pM in assay [3] (setting [14]); 0.986 nM in assay [4] (setting [11]); 4.25 pM in assay [5] (setting [12]).

As to `COC(=O)N[C@H](C(=O)N1CCC[C@H]1c1ncc(-c2cc(F)c3c(c2)OC(c2ccc(CC(C)C)s2)n2c-3cc3cc(-c4cnc([C@@H]5CCCN5C(=O)[C@@H](NC(=O)OC)C(C)C)[nH]4)ccc32)[nH]1)C(C)C` (single isomer, unassigned) [Compound 520], the IC50 in assay [1] (setting [13]) is 82.8 pM; in assay [2] (HCV replicon 1A), 9.47 pM; in assay [3] (setting [14]), 593 pM; in assay [4] (setting [11]), 1.91 nM; in assay [5] (setting [12]) it was 9.24 pM.

As to `COC(=O)NC(C(=O)N1CCC[C@H]1c1ncc(-c2ccc3c(c2)cc2n3C(c3ccc(C4CC4)s3)Oc3cc(-c4cnc([C@@H]5C[C@H]6C[C@H]6N5C(=O)[C@@H](NC(=O)OC)C(C)C)[nH]4)cc(F)c3-2)[nH]1)C1C[C@@H](C)O[C@@H](C)C1` (single isomer, unassigned) [Compound 538], the IC50 in assay [1] (setting [13]) was determined as 7.03 pM; in assay [2] (HCV replicon 1A), 4.7 pM; in assay [3] (setting [14]), 51.3 pM; in assay [4] (setting [11]), 0.136 nM; in assay [5] (setting [12]), 3.26 pM.

As to `COC(=O)N[C@H](C(=O)N1CCC[C@H]1c1ncc(-c2cc(F)c3c(c2)OC(c2cc4c(s2)CCC4)n2c-3cc3cc(-c4cnc([C@@H]5C[C@H]6C[C@H]6N5C(=O)[C@@H](NC(=O)OC)C5CCOCC5)[nH]4)ccc32)[nH]1)C(C)C` (single isomer, unassigned) [Compound 541], the IC50 in assay [1] (setting [13]) is 2190 pM; in assay [2] (HCV replicon 1A), 14.8 pM; in assay [3] (setting [14]), 96 pM; in assay [4] (setting [11]), 0.303 nM; in assay [5] (HCV replicon 1B), 23.7 pM.
